In general, IC50 refers to the concentration that gives 50% inhibition.

Molecules are shown by their SMILES.

From US7645784B2, “Benzimidazole derivatives” (AstraZeneca AB, priority 2003, dated 2010) come the findings set out here.

The test concerns the target T1, hVR1 (Homo sapiens, UniProt Q8NER1).
T1 construct: expressed in transfected cells
The test is described as follows: hVR1 FLIPR (Fluorometric Image Plate Reader) screening assay, IC50 determination. The note with it: CHO cells stably expressing hVR1. In kind it is cell-based. The protocol: 1. hVR1 FLIPR (Fluorometric Image Plate Reader) screening assay
Transfected CHO cells, stably expessing hVR1 (15,000 cells/well) are seeded in 50 μL media in a black clear bottom 384 plate (Greiner) and grown in a humidified incubator (37° C., 2% CO2), 24-30 hours prior to experiment.
Subsequently, the media is removed from the cell plate by inversion and 2 μM Fluo-4 is added using a multidrop (Labsystems). Following the 40 min dye incubation in the dark at 37° C. and 2% CO2, the extracellular dye present is washed away using an EMBLA (Scatron), leaving the cells in 40 μL of assay buffer (1×HBSS, 10 mM D-Glucose, 1 mM CaCl2,10 mM HEPES, 10×7.5% NaHCO3 and 2.5 mM Probenecid).
FLIPR assay—IC50 determination protocol
For IC50 determinations the fluorescence is read using FLIPR filter 1 (em […]). A cellular baseline recording is taken for 30 seconds, followed by a 20 μL addition of 10, titrated half-log concentrations of the test compound, yielding cellular concentration ranging from 3 μM to 0.1 nM. Data is collected every 2 seconds for a further 5 min prior to the addition of a VR1 agonist solution: either 50 nM solution of capsaicin or MES (2-[N-morpholino]ethanesulfonic acid) buffer (pH 5.2), by the FLIPR pipettor. The FLIPR continues to collect data for a further 4 min. Compounds having antagonistic properties against the hVR1 will inhibit the increase in intracellular calcium in response to the capsaicin addition. This consequently leading to a reduction in fluorescence signal and providing a reduced fluorescence reading, compared with no compound, buffer controls. Data is exported by the FLIPR program as a sum of fluorescence calculated under the curve upon the addition of capsaicin. Maximum inhibition, Hill slope and IC50 data for each compound are generated.

T1 sequence (Q8NER1 whole entry): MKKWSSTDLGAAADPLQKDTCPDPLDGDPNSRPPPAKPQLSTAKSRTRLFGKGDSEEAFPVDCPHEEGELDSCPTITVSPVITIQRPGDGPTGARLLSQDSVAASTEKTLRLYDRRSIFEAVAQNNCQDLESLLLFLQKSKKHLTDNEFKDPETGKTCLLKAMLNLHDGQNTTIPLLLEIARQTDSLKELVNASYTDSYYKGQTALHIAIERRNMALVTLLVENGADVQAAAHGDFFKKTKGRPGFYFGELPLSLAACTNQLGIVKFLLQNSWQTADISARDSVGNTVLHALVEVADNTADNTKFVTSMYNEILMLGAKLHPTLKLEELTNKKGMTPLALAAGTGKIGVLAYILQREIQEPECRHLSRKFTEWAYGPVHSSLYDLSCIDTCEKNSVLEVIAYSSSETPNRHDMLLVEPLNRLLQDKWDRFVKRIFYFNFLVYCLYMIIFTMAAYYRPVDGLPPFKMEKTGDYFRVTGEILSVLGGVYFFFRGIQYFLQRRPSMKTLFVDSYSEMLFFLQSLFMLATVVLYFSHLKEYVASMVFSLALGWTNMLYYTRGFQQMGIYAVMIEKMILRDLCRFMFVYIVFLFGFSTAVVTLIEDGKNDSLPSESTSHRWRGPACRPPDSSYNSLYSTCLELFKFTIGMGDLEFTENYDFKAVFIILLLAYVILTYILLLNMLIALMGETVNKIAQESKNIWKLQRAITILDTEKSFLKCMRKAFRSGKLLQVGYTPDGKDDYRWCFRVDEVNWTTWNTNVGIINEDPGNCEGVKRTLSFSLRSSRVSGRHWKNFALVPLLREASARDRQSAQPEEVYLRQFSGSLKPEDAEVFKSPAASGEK

Compound `O=C(Cn1cnc2cccc([N+](=O)[O-])c21)Nc1cc(F)cc(F)c1` [Example 7, N-(3,5-Difluorophenyl)-2-(7-nitro-1H-benzimidazol-1-yl)acetamide] yielded a concentration for half-maximal inhibition (IC50) (agonist H+/MES buffer (pH 5.2)) of 70 nM and an IC50 (agonist capsaicin) of 50 nM.
As for `COC(=O)c1cccc2ncn(CC(=O)Nc3cc(OC)cc(OC)c3)c12` [Example 67, Methyl 1-{2-[(3,5-dimethoxyphenyl)amino]-2-oxoethyl}-1H-benzimidazole-7-carboxylate], the IC50 (agonist H+/MES buffer (pH 5.2)) was 140 nM and the IC50 (agonist capsaicin) is 160 nM.
